{
  "source": "patent US20070276034A1",
  "about": "“Compounds, compositions and methods for the treatment of synucleinopathies” (priority 2002, published 2007)",
  "format_in_all_cases": "biochemical",
  "key": {"NAC fibrils": {"molecular_target": "T1, NAC fibrils (Homo sapiens, UniProt P37840)", "T1 construct": "NAC is a 35-amino acid fragment of α-synuclein; purchased Bachem Inc", "assay": "Congo red binding assay with NAC fibrils", "details": "for % Inhibition NAC (result ± S.D.), Congo red binding: 3-day incubation", "procedure": "(§1) In the Congo red binding assay, the ability of a given test compound to alter amyloid (in this case, NAC) binding to Congo red is quantified. In this assay, NAC and test compounds were incubated for 3 days and then vacuum filtered through a 0.2 μm filter. The amount of NAC retained in the filter was then quantitated following staining of the filter with Congo red. After appropriate washing of the filter, any lowering of the Congo red color on the filter in the presence of the test compound (compared to the Congo red staining of the amyloid protein in the absence of the test compound) was indicative of the test compound's ability to diminish/alter the amount of aggregated and congophilic NAC.\nIn one study, the ability of NAC fibrils to bind Congo red in the absence or presence of increasing amounts of compounds #1, 3, 23, 26, 63, 66, 67, or EDTA (at NAC:test compound weight ratios of 1:1, 1:0.1, 1:0.01 or 1:0.001) was determined."}, "Aβ 1-42 fibrils [1]": {"molecular_target": "T2, Aβ 1-42 fibrils (Homo sapiens, UniProt P05067)", "T2 construct": "purchased Bachem Inc", "T2 sequence (P05067 672-713)": "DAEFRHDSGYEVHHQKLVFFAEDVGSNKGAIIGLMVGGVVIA", "assay": "Congo red binding assay with Aβ 1-42 fibrils", "details": "for % Inhibition Aβ (result ± S.D.), Congo red binding: 3-day incubation", "procedure": "as §1, with “binding assay” for “binding assay,”, “a” for “a given”, “case, Aβ)” for “case, NAC)”, “assay, Aβ 1-42” for “assay, NAC”, “of Aβ 1-42” for “of NAC”, “congophilic Aβ.” for “congophilic NAC.”\nIn one study, the ability of Aβ fibrils to bind Congo red in the absence or presence of increasing amounts of the compounds or EDTA (at Aβ:test compound weight ratios of 1:1, 1:0.1, 1:0.01 or 1:0.001) was determined."}, "Wild-type α-synuclein": {"molecular_target": "T3, Wild-type α-synuclein (Homo sapiens, UniProt P37840)", "T3 construct": "purchased rPeptide (Athens, Ga., USA)", "assay": "Circular dichroism spectroscopy - conversion of α-synuclein to β-sheet-rich structure", "details": "for inhibition of conversion of α-synuclein to a β-sheet-rich structure (in words): 48 hours, 1 mg/ml compound (FIG. 13D)", "procedure": "For this purpose, α-synuclein was obtained from rPeptide (Athens, Ga., USA) as a lyophilized salt in 1 mg aliquots. Buffer components and other solvents were obtained from Sigma as A.C.S. Reagent grade or higher. Wild-type α-synuclein was dissolved in a buffer containing 9.5 mM phosphate and 139.7 mM potassium chloride, adjusted to pH 7.4. […] Aliquots of the solutions were taken at the appropriate time point for CD spectral analysis. CD spectra were acquired on a Jasco J-810 spectropolarimeter using a 0.1 cm path length cell. All spectra were recorded with a step size of 0.1 nm, a bandwidth of 1 nm, and an α-synuclein concentration of 0.1 mg/ml. The spectra were trimmed at the shortest wavelength which still provided a dynode voltage less than […]. The trimmed spectra were then subjected to a data processing routine beginning with noise reduction by Fourier transform followed by subtraction of a blank spectrum (compound or vehicle only without α-synuclein). These blank corrected spectra were then zeroed at 260 nm and the units converted from millidegrees to specific ellipticity. Percent β-sheet was determined from processed spectra by subtracting the ellipticity minimum value at approximately 218 nm from the maximum value observed at approximately 197 nm and referencing to a scale normalized to nearly fully folded and unfolded reference values, consistent with previous reports (Ramirez-Alvarado et al., J. Mol. […] Andersen et al., J. Am. Chem. […] These percent β-sheet values were then used to provide the respective relative % inhibition induced by the compounds."}, "Aβ 1-42 fibrils [2]": {"molecular_target": "T2, Aβ 1-42 fibrils", "assay": "Circular dichroism spectroscopy of Aβ 1-42 fibrils", "procedure": "Circular dichroism (CD) spectroscopy is a method that can be used to determine the effects of test compounds to disrupt the secondary structure conformation of amyloid fibrils. In one study, as described in this example, circular dichroism spectroscopy was used to determine the effects of different compounds of the invention on β-sheet conformation of Aβ 1-42 fibrils. For this study, Aβ 1-42 (Bachem Inc., Torrance, Calif.) was first dissolved in a 2 mM NaOH solution, maintaining the pH of these solutions above 10. […] Aβ 1-42 was then incubated at 37° C. in the absence or presence of different compounds at an Aβ:test compound wt/wt ratios of 1:0.1, 1:1 and 1:10. After 3 days of incubation, CD spectra were recorded on a Jasco 810 spectropolarimeter (Easton, Md.). All CD spectra were collected with 0.05 cm quartz cells. Wavelength traces were scanned from 190-260 nm at 0.5 nm increments with a bandwidth of 5 nm, at a scan speed of 10 nm/minute, a response time of 32 seconds, and a data pitch of 0.5 nm. The whole system was equilibrated and continuously flushed with nitrogen at 10 ml/minute. […] Ellipticity in degrees was converted to MRE ([Q]; molar residue ellipticity) using the formula [Q]=100•[…]; where Q is the ellipticity in degrees; […]"}, "[3]": {"details": "NAC:test compound wt/wt ratio 1:0.1"}, "[4]": {"details": "NAC:test compound wt/wt ratio 1:1"}, "[5]": {"details": "Aβ:test compound wt/wt ratio 1:0.001"}, "[6]": {"details": "Aβ:test compound wt/wt ratio 1:0.1"}, "[7]": {"details": "Aβ:test compound wt/wt ratio 1:1"}, "[8]": {"details": "NAC:test compound wt/wt ratio 1:0.001"}, "[9]": {"details": "NAC:test compound wt/wt ratio 1:0.01"}, "[10]": {"details": "all concentrations tested (ratios 1:1 to 1:0.001), 3 days"}},
  "data": [
    {"smiles": "O=C(N[C@@H]1CCCC[C@H]1NC(=O)c1ccc(O)c(O)c1)c1ccc(O)c(O)c1", "note": "(relative stereo) [Compound 26, N,N′-bis(3,4-dihydroxybenzoyl)-trans-1,2-diaminocyclohexane]", "values": [
      {"measurement": "% Inhibition NAC (result ± S.D.), Congo red binding", "setting": "NAC fibrils; [3]", "value": "36.7 ± 5.59", "unit": "%"},
      {"measurement": "% Inhibition NAC (result ± S.D.), Congo red binding", "setting": "NAC fibrils; [4]", "value": "34.4 ± 10.19", "unit": "%"}
    ]},
    {"smiles": "O=C(c1ccc(O)c(O)c1)C(O)c1ccc(O)c(O)c1", "note": "(stereo not shown) [Compound 1, 3,4,3′,4′-tetrahydroxybenzoin]", "values": [
      {"measurement": "% Inhibition NAC (result ± S.D.), Congo red binding", "setting": "NAC fibrils; [3]", "value": "75.9 ± 2.58", "unit": "%"},
      {"measurement": "% Inhibition NAC (result ± S.D.), Congo red binding", "setting": "NAC fibrils; [4]", "value": "75.4 ± 2.96", "unit": "%"}
    ]},
    {"smiles": "Oc1ccc(Cc2ccc(O)c(O)c2)cc1O", "note": "[Compound 3, 3,4,3′,4′-tetrahydroxydiphenylmethane]", "values": [
      {"measurement": "% Inhibition Aβ (result ± S.D.), Congo red binding", "setting": "Aβ 1-42 fibrils [1]; [5]", "value": "1.7 ± 4.21", "unit": "%"},
      {"measurement": "% Inhibition Aβ (result ± S.D.), Congo red binding", "setting": "Aβ 1-42 fibrils [1]; [6]", "value": "35.7 ± 3.29", "unit": "%"},
      {"measurement": "% Inhibition Aβ (result ± S.D.), Congo red binding", "setting": "Aβ 1-42 fibrils [1]; [7]", "value": "91.6±5.19", "unit": "%"},
      {"measurement": "% Inhibition NAC (result ± S.D.), Congo red binding", "setting": "NAC fibrils; [8]", "value": "65.2 ± 5.40", "unit": "%"},
      {"measurement": "% Inhibition NAC (result ± S.D.), Congo red binding", "setting": "NAC fibrils; [9]", "value": "81.7 ± 2.82", "unit": "%"},
      {"measurement": "% Inhibition NAC (result ± S.D.), Congo red binding", "setting": "NAC fibrils; [3]", "value": "83.2±3.57", "unit": "%"},
      {"measurement": "% Inhibition NAC (result ± S.D.), Congo red binding", "setting": "NAC fibrils; [4]", "value": "94.4±2.48", "unit": "%"}
    ]},
    {"smiles": "O=C(c1ccc(O)c(O)c1)N1CCN(C(=O)c2ccc(O)c(O)c2)CC1", "note": "[Compound 23, 1,4-bis(3,4-dihydroxybenzoyl)piperazine]", "values": [
      {"measurement": "inhibition of conversion of α-synuclein to a β-sheet-rich structure (in words)", "setting": "Wild-type α-synuclein", "value": "modest inhibitory effects"}
    ]},
    {"smiles": "O=C(Nc1ccc(O)c(O)c1)c1ccc(O)c(O)c1", "note": "[Compound 51, 3,4-dihydroxybenzoic acid 3,4-dihydroxyanilide]", "values": [
      {"measurement": "disruption of β-sheet structure in Aβ 1-42 fibrils (CD minima at 218 nm)", "setting": "Aβ 1-42 fibrils [2]; 3 days co-incubation, 25 μM Aβ 1-42 (FIG. 1, FIG. 2)", "value": "marked disruption of β-sheet structure"},
      {"measurement": "disruption of β-sheet structure of Aβ 1-42 fibrils (CD minima at 218 nm)", "setting": "Aβ 1-42 fibrils [2]; Aβ:test compound wt/wt ratio of 1:10 (FIG. 3)", "value": "completely disrupt the β-sheet structure"},
      {"measurement": "dose-response of disruption of β-sheet structure of Aβ 1-42 fibrils (CD minima at 218 nm)", "setting": "Aβ 1-42 fibrils [2]; Aβ:test compound wt/wt ratios of 1:0.1, 1:1 and 1:10 (FIG. 3)", "value": "dose-dependent decrease in the minima"},
      {"measurement": "conversion of natively unfolded α-synuclein to a β-sheet-rich structure (in words)", "setting": "Wild-type α-synuclein; 1 mg/ml α-synuclein, 1 mg/ml compound, 24 hours, 37°", "value": "prevents the conversion of natively unfolded α-synuclein to a β-sheet-rich structure"},
      {"measurement": "dose sufficient to completely eliminate the conversion of α-synuclein to a β-sheet-rich structure", "setting": "Wild-type α-synuclein; 1.0 mg/ml α-synuclein, 24 hours incubation at 37° C.", "value": 0.25, "unit": "mg/mL"},
      {"measurement": "IC50", "setting": "Wild-type α-synuclein; 1.0 mg/ml α-synuclein, 24 hours incubation at 37° C., read-out: dose sufficient to inhibit the conversion of α-synuclein to a β-sheet-rich structure by approximately 50% (converted)", "value": 574, "unit": "µM"},
      {"measurement": "inhibition of conversion of α-synuclein to a β-sheet-rich structure (in words)", "setting": "Wild-type α-synuclein", "value": "completed inhibited conversion"},
      {"measurement": "β-sheet-rich structure of α-synuclein", "setting": "Wild-type α-synuclein; compound added 24 hours after the beginning (t=24 hr), up to 144 hours at 37° C.", "value": "≤ 45", "unit": "%"},
      {"measurement": "β-sheet-rich structure of α-synuclein", "setting": "Wild-type α-synuclein; compound added at the beginning (t=0 hr), sampled up to 144 hours", "value": "approximately 10%"}
    ]},
    {"smiles": "O=C(Nc1ccc(O)c(O)c1)C(=O)Nc1ccc(O)c(O)c1", "note": "[Compound 63, oxalic acid bis(3,4-dihydroxyanilide)]", "values": [
      {"measurement": "inhibition of conversion of α-synuclein to a β-sheet-rich structure (in words)", "setting": "Wild-type α-synuclein", "value": "modest inhibitory effects"}
    ]},
    {"smiles": "O=C(CCC(=O)NCc1ccc(O)c(O)c1)NCc1ccc(O)c(O)c1", "note": "[Compound 67, succinic acid bis(3,4-dihydroxybenzylamide)]", "values": [
      {"measurement": "% Inhibition NAC (result ± S.D.), Congo red binding", "setting": "NAC fibrils; [4]", "value": "81.2 ± 2.87", "unit": "%"}
    ]},
    {"smiles": "O=C(Nc1ccc(O)c(O)c1)Nc1ccc(O)c(O)c1", "note": "[Compound 76, 1,3-bis(3,4-dihydroxyphenyl)urea]", "values": [
      {"measurement": "inhibition of conversion of α-synuclein to a β-sheet-rich structure (in words)", "setting": "Wild-type α-synuclein", "value": "completed inhibited conversion"}
    ]},
    {"smiles": "O=C(O)CN(CCN(CC(=O)O)CC(=O)O)CC(=O)O", "note": "[EDTA, reference compound]", "values": [
      {"measurement": "% Inhibition Aβ (result ± S.D.), Congo red binding", "setting": "Aβ 1-42 fibrils [1]; [5]", "value": "7.91 ± 3.61", "unit": "%"},
      {"measurement": "% Inhibition Aβ (result ± S.D.), Congo red binding", "setting": "Aβ 1-42 fibrils [1]; Aβ:test compound wt/wt ratio 1:0.01", "value": "0.0 ± 3.91", "unit": "%"},
      {"measurement": "% Inhibition Aβ (result ± S.D.), Congo red binding", "setting": "Aβ 1-42 fibrils [1]; [6]", "value": "3.6 ± 8.68", "unit": "%"},
      {"measurement": "% Inhibition Aβ (result ± S.D.), Congo red binding", "setting": "Aβ 1-42 fibrils [1]; [7]", "value": "1.1 ± 7.02", "unit": "%"},
      {"measurement": "inhibition of Aβ 1-42 fibril binding to Congo red (in words)", "setting": "Aβ 1-42 fibrils [1]; [10]", "value": "no significant inhibition"},
      {"measurement": "% Inhibition NAC (result ± S.D.), Congo red binding", "setting": "NAC fibrils; [8]", "value": "0.0 ± 20.57", "unit": "%"},
      {"measurement": "% Inhibition NAC (result ± S.D.), Congo red binding", "setting": "NAC fibrils; [9]", "value": "0.0 ± 22.0", "unit": "%"},
      {"measurement": "% Inhibition NAC (result ± S.D.), Congo red binding", "setting": "NAC fibrils; [3]", "value": "0.0 ± 38.26", "unit": "%"},
      {"measurement": "% Inhibition NAC (result ± S.D.), Congo red binding", "setting": "NAC fibrils; [4]", "value": "0.2 ± 7.33", "unit": "%"},
      {"measurement": "inhibition of NAC fibril binding to Congo red (in words)", "setting": "NAC fibrils; [10]", "value": "no significant inhibition"}
    ]}
  ]
}
